How the values were obtained:
Type in all cases: in vivo
[1] = test system: colonic disorders in DSS-induced chronic colitis model; assay: Colonic disorders in DSS-induced chronic colitis model; conditions: BALB/c mouse, oral 10 mg/kg once Day 27, twice a day Day 28-31; scores Day 28-32
Source text: (§1) The action of Compound (I) on colonic disorders in inflammatory bowel disease models was studied. As the inflammatory bowel disease models, models partially modified from a TNBS-induced colitis model and a DSS-induced chronic colitis model described in documents (Gastroenterology, 1989, Vol. 96, pp. 29-36 and Am. J. Physiol. Gastrointest. Liver Physiol., 2004, Vol. 287, pp. G115-124) were used.
To each BALB/cCrSlc mouse (female, 9-week old, Japan SLC, Inc.), DSS (Molecular Weight: 36-50 kDa; MP Biomedicals) dissolved in sterile ultrapure water was administered via free drinking for 5 days from the day of the start of the administration via drinking water (this day was considered as Day 0 after the start of the administration via drinking water), and then switched to administration of sterile ultrapure water via free drinking for 5 days. This cycle was repeated again, and DSS was further administered via free drinking for another 7 days to produce the colitis model. As an index of colitis symptoms, stool consistency scores were used. The stool consistency scores were based on the following criteria: normal stool was defined as score 0; loose stool was defined as score 2; and diarrhea was defined as score 4. […]

[2] = test system: ICR mouse; assay: Evaluation of hepatotoxicity in mouse (plasma AST); conditions: oral 500 mg/kg, plasma on the day after administration
Experimental: Compound (I) was suspended in 0.5% methylcellulose (Wako Pure Chemical Industries, Ltd.) to prepare a 50 mg/mL solution to be administered. To each ICR mouse (male, 7-week old, Charles River Laboratories Japan, Inc.), each compound was orally administered at a dose of 500 mg/kg. On the day after the administration, blood was collected from the posterior vena cava, and the obtained blood was centrifuged to collect blood plasma. AST (aspartate aminotransferase) value, which is a marker of hepatic disorders in blood plasma, was measured with a biochemistry automatic analyzer (Hitachi 7070, Hitachi, Ltd.). Comparative Compound 4 was suspended in 0.5% sodium carboxymethylcellulose (Wako Pure Chemical Industries, Ltd.) before use.

[3] = test system: colonic disorders in TNBS-induced colitis model; assay: Colonic disorders in TNBS-induced colitis model; conditions: Wistar rat, oral 3 mg/kg once on TNBS day then twice a day for 4 days, colon 5 days after TNBS
Source text: as §1
To each Slc:Wistar rat (male, 12-week old, Japan SLC, Inc.), TNBS (Wako Pure Chemical Industries, Ltd.) dissolved in ethanol was rectally administered under anesthesia, and the TNBS solution was held in the rectum for 1 hour to produce the colitis model. These rats had been fasted from 2 days before the TNBS administration to the day of the TNBS administration. Five days after the TNBS administration, the colon was isolated from the each rat, and the macroscopic damage score (which is a total of adhesion score, diarrhea score and ulcer score) was recorded as an index of damage in the colon. The macroscopic damage score was calculated based on the scores of Dubigeon et al. (Eur. J. Pharmacol., 2001, Vol. 431, pp. 103-110) and the scores of Venkova et al. (J. Pharmacol. Exp. Ther., 2004, Vol. 308, pp. 206-213). […]

[4] = test system: TNFα production; assay: Mouse LPS-induced cytokine production model; conditions: BALB/c mouse, 50 mg/kg oral 30 minutes before LPS 1 mg/kg i.p., serum 60 minutes after LPS
Experimental: The action of Compound (I) on the TNFα production induced by LPS administration in a mouse was studied by a method partially modified from the method described in Journal of Immunology (1992, Vol. 148, pp. 1890-1897).
To each BALB/c mouse (male, 7 to 9-week old, Charles River Laboratories Japan, Inc.), LPS (0111:B4, SIGMA) was intraperitoneally administered at a dose of 1 mg/kg. Sixty minutes after the LPS administration, blood was collected from the abdominal vena cava under anesthesia and centrifuged for 15 minutes at 4° C. to obtain a serum. For the measurement of TNF-α in the serum, ELISA Development System (R&D Systems) was used. Each test compound was dissolved in DMSO (Final Concentration: 2%), and then the obtained solution was dissolved in a 27% aqueous solution of 2-hydroxypropyl-β-cyclodextrin (hereinafter referred to as “HP-β-CD”; Nihon Shokuhin Kako Co., Ltd.). Thirty minutes before the LPS administration, the resulting solution was orally administered at 50 mg/kg.

[5] = test system: skin swelling response in type I allergic dermatitis model; assay: Skin swelling response in type I allergic dermatitis model; conditions: BALB/c mouse, 20 μL of 0.5 w/v % solution applied to auricle 1 hour before induction
Source text: The action of Compound (I) on skin swelling response in mouse allergic dermatitis models was studied. As the allergic dermatitis models, models partially modified from a type I allergic dermatitis model and a type IV allergic dermatitis model described in documents (Inflamm. Res., 1998, Vol. 47, pp. 506-511 and Int. Arch. Allergy. Appl. Immunol., 1990, Vol. 92, pp. 356-360) were used.
To each BALB/c mouse (female, 7-week old, Charles River Laboratories Japan, Inc.), mouse IgE anti-DNP antibody (0.05 mg/body, […] CORPORATION) was intravenously administered to passively sensitize the mouse. Twenty four hours after the sensitization, 20 μL of 0.38% DNFB (SIGMA) dissolved in acetone:olive oil (4:1) was applied to the auricle of the mouse to induce inflammation. From after the induction to 24 hours, the thickness of the auricle was measured with time using a Digimatic Indicator (Mitutoyo). Each test compound was dissolved in ethanol, and 20 μL of 0.5 w/v % solution was applied to the auricle at 1 hour before the induction.
The swelling ratio of the auricle was calculated according to the following equation. […] Auricular Swelling Ratio(%)=(A−B)/B×100

COc1c(NC(=O)N[C@@H]2Cc3ccccc3[C@@H]2O)cc(C(C)(C)C)cc1[C@@H](O)C(F)(F)F [Compound 46b, 1-(5-tert-butyl-2-methoxy-3-((R)-2,2,2-trifluoro-1-hydroxyethyl)phenyl)-3-((1S,2R)-1-hydroxy-2,3-dihydro-1H-indene-2-yl)urea]
stool consistency score (total) [1]: 5.7±0.8
AST value [2]: 47 U/L
macroscopic damage score [3]: 3.3±0.7
Suppression Ratio of TNFα production [4]: 100.0%
suppression ratio on immediate response (auricular swelling AUC 0-4 hours) [5]: 94.4%
suppression ratio on late response (auricular swelling AUC 5-10 hours) [5]: 93.1%

Reference: patent US8653304B2, “2,3-dihydro-1H-indene-2-yl urea derivative and pharmaceutical application of same” (Toray Industries, Inc., priority 2009, dated 2014)
